# Data reported in patent US9828360B2 (Array BioPharma Inc., priority 2012, dated 2017).
# What was measured:
# Experiment in all cases: KinaseProfiler off-target kinase profiling
# Type in all cases: biochemical
# Details in all cases: 10 μM, ATP near Km
# mTOR/FKBP12 = biological target: T1, mTOR/FKBP12 (Homo sapiens, UniProt P42345)
# T1 construct: purchased Millipore, Inc. (KinaseProfiler service)
# Experimental: (§1) A representative compound of the invention (Example 48) was tested for off-target kinase activity at a concentration of 10 μM by Millipore, Inc. in their KinaseProfiler™ service against all the kinases available in their full kinase panel. The compound was run in duplicate at a concentration of ATP near the Km for each individual kinase according to Millipore's specifications. The results are shown in Table B. Data are reported as percent of control (POC) and are the average of the two replicates.
# EphA5 = biological target: T2, EphA5 (Homo sapiens, UniProt P54756)
# T2 construct: purchased Millipore, Inc. (KinaseProfiler service)
# Experimental: as §1
# Tie2 = biological target: T3, Tie2 (Homo sapiens, UniProt Q02763)
# T3 construct: purchased Millipore, Inc. (KinaseProfiler service)
# Experimental: as §1
# MSSK1 = biological target: T4, MSSK1 (Homo sapiens, UniProt Q9UPE1)
# T4 construct: purchased Millipore, Inc. (KinaseProfiler service)
# Experimental: as §1
# CDK1/cyclinB = biological target: T5, CDK1/cyclinB (Homo sapiens, UniProt P06493)
# T5 construct: purchased Millipore, Inc. (KinaseProfiler service)
# Experimental: as §1
# ARK5 = biological target: T6, ARK5 (Homo sapiens, UniProt O60285)
# T6 construct: purchased Millipore, Inc. (KinaseProfiler service)
# Experimental: as §1
# FAK2 = biological target: T7, FAK2 (Homo sapiens, UniProt Q14289)
# T7 construct: purchased Millipore, Inc. (KinaseProfiler service)
# Experimental: as §1
# MSK2 = biological target: T8, MSK2 (Homo sapiens, UniProt O75676)
# T8 construct: purchased Millipore, Inc. (KinaseProfiler service)
# Experimental: as §1
# TAK1 = biological target: T9, TAK1 (Homo sapiens, UniProt O43318)
# T9 construct: purchased Millipore, Inc. (KinaseProfiler service)
# Experimental: as §1
# PDK1 = biological target: T10, PDK1 (Homo sapiens, UniProt O15530)
# T10 construct: purchased Millipore, Inc. (KinaseProfiler service)
# Experimental: as §1
# CK1delta = biological target: T11, CK1delta (Homo sapiens, UniProt P48730)
# T11 construct: purchased Millipore, Inc. (KinaseProfiler service)
# Experimental: as §1
# FGFR2 = biological target: T12, FGFR2 (Homo sapiens, UniProt P21802)
# T12 construct: purchased Millipore, Inc. (KinaseProfiler service)
# Experimental: as §1
# JNK3 = biological target: T13, JNK3 (Homo sapiens, UniProt P53779)
# T13 construct: purchased Millipore, Inc. (KinaseProfiler service)
# Experimental: as §1
# ROCK-I = biological target: T14, ROCK-I (Homo sapiens, UniProt Q13464)
# T14 construct: purchased Millipore, Inc. (KinaseProfiler service)
# Experimental: as §1
# SGK3 = biological target: T15, SGK3 (Homo sapiens, UniProt Q96BR1)
# T15 construct: purchased Millipore, Inc. (KinaseProfiler service)
# Experimental: as §1
# PRK2 = biological target: T16, PRK2 (Homo sapiens, UniProt Q16513)
# T16 construct: purchased Millipore, Inc. (KinaseProfiler service)
# Experimental: as §1
# PKCeta = biological target: T17, PKCeta (Homo sapiens, UniProt P24723)
# T17 construct: purchased Millipore, Inc. (KinaseProfiler service)
# Experimental: as §1
# FAK = biological target: T18, FAK (Homo sapiens, UniProt Q05397)
# T18 construct: purchased Millipore, Inc. (KinaseProfiler service)
# Experimental: as §1
# ITK = biological target: T19, ITK (Homo sapiens, UniProt Q08881)
# T19 construct: purchased Millipore, Inc. (KinaseProfiler service)
# Experimental: as §1
# EphA2 = biological target: T20, EphA2 (Homo sapiens, UniProt P29317)
# T20 construct: purchased Millipore, Inc. (KinaseProfiler service)
# Experimental: as §1
# AKT1 = biological target: T21, AKT1 (Homo sapiens, UniProt P31749)
# T21 construct: purchased Millipore, Inc. (KinaseProfiler service)
# Experimental: as §1
# Rse = biological target: T22, Rse (Homo sapiens, UniProt Q06418)
# T22 construct: purchased Millipore, Inc. (KinaseProfiler service)
# Experimental: as §1
# ZAP-70 = biological target: T23, ZAP-70 (Homo sapiens, UniProt P43403)
# T23 construct: purchased Millipore, Inc. (KinaseProfiler service)
# Experimental: as §1
# Fgr = biological target: T24, Fgr (Homo sapiens, UniProt P09769)
# T24 construct: purchased Millipore, Inc. (KinaseProfiler service)
# Experimental: as §1
# DCAMKL2 = biological target: T25, DCAMKL2 (Homo sapiens, UniProt Q8N568)
# T25 construct: purchased Millipore, Inc. (KinaseProfiler service)
# Experimental: as §1
# SRPK2 = biological target: T26, SRPK2 (Homo sapiens, UniProt P78362)
# T26 construct: purchased Millipore, Inc. (KinaseProfiler service)
# Experimental: as §1
# MINK = biological target: T27, MINK (Homo sapiens, UniProt Q8N4C8)
# T27 construct: purchased Millipore, Inc. (KinaseProfiler service)
# Experimental: as §1
# MRCKalpha = biological target: T28, MRCKalpha (Homo sapiens, UniProt Q5VT25)
# T28 construct: purchased Millipore, Inc. (KinaseProfiler service)
# Experimental: as §1
# Axl = biological target: T29, Axl (Homo sapiens, UniProt P30530)
# T29 construct: purchased Millipore, Inc. (KinaseProfiler service)
# Experimental: as §1
# CK2alpha2 = biological target: T30, CK2alpha2 (Homo sapiens, UniProt P19784)
# T30 construct: purchased Millipore, Inc. (KinaseProfiler service)
# Experimental: as §1
# Flt4 = biological target: T31, Flt4 (Homo sapiens, UniProt P35916)
# T31 construct: purchased Millipore, Inc. (KinaseProfiler service)
# Experimental: as §1
# FGFR3 = biological target: T32, FGFR3 (Homo sapiens, UniProt P22607)
# T32 construct: purchased Millipore, Inc. (KinaseProfiler service)
# Experimental: as §1
# BLK_m = biological target: T33, BLK_m (Mus musculus, UniProt P16277)
# T33 construct: purchased Millipore, Inc. (KinaseProfiler service)
# Experimental: as §1
# CK1_y = system: CK1_y
# Experimental: as §1
# MAPKAP-K5 = biological target: T34, MAPKAP-K5 (Homo sapiens, UniProt Q8IW41)
# T34 construct: purchased Millipore, Inc. (KinaseProfiler service)
# Experimental: as §1
# Fyn = biological target: T35, Fyn (Homo sapiens, UniProt P06241)
# T35 construct: purchased Millipore, Inc. (KinaseProfiler service)
# Experimental: as §1
# WNK2 = biological target: T36, WNK2 (Homo sapiens, UniProt Q9Y3S1)
# T36 construct: purchased Millipore, Inc. (KinaseProfiler service)
# Experimental: as §1
# CK1gamma2 = biological target: T37, CK1gamma2 (Homo sapiens, UniProt P78368)
# T37 construct: purchased Millipore, Inc. (KinaseProfiler service)
# Experimental: as §1
# AKT3 = biological target: T38, AKT3 (Homo sapiens, UniProt Q9Y243)
# T38 construct: purchased Millipore, Inc. (KinaseProfiler service)
# Experimental: as §1
# EphA4 = biological target: T39, EphA4 (Homo sapiens, UniProt P54764)
# T39 construct: purchased Millipore, Inc. (KinaseProfiler service)
# Experimental: as §1
# IR Activated = biological target: T40, IR Activated (Homo sapiens, UniProt P06213)
# T40 construct: purchased Millipore, Inc. (KinaseProfiler service)
# Experimental: as §1
# MST1 = biological target: T41, MST1 (Homo sapiens, UniProt Q13043)
# T41 construct: purchased Millipore, Inc. (KinaseProfiler service)
# Experimental: as §1
# T38 sequence (Q9Y243 whole entry): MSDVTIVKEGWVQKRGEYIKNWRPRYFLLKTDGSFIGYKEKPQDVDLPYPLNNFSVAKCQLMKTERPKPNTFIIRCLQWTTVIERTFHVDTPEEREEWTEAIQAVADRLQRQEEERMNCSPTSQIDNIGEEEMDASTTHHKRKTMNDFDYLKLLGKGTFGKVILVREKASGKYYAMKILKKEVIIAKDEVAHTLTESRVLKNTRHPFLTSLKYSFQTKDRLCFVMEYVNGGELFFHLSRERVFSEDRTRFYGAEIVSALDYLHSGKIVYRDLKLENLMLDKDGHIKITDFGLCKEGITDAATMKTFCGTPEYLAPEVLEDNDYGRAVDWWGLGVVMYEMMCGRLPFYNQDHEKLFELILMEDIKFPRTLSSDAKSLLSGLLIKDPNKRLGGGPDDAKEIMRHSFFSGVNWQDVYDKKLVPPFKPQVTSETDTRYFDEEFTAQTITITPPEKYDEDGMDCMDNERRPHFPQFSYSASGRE
# T25 sequence (Q8N568 whole entry): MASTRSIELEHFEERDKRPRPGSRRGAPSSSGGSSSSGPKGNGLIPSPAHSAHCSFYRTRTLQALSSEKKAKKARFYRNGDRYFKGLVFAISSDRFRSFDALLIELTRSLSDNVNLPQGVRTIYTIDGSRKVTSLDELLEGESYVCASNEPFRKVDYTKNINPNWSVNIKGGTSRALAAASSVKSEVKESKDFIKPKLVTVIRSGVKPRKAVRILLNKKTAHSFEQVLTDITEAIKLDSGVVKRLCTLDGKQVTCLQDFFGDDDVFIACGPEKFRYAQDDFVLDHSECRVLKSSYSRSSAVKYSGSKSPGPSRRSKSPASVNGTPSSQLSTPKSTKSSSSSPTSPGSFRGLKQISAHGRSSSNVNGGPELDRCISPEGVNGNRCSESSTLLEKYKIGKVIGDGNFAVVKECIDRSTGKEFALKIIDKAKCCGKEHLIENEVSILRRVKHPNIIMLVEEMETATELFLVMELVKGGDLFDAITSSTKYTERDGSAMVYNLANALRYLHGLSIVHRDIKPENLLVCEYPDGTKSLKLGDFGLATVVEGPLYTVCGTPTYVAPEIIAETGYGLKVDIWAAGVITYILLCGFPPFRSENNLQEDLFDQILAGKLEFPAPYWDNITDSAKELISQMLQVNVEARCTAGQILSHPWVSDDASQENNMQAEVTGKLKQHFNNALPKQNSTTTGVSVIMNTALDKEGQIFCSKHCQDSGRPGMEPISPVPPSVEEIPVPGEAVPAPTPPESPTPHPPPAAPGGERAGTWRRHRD
# T34 sequence (Q8IW41 whole entry): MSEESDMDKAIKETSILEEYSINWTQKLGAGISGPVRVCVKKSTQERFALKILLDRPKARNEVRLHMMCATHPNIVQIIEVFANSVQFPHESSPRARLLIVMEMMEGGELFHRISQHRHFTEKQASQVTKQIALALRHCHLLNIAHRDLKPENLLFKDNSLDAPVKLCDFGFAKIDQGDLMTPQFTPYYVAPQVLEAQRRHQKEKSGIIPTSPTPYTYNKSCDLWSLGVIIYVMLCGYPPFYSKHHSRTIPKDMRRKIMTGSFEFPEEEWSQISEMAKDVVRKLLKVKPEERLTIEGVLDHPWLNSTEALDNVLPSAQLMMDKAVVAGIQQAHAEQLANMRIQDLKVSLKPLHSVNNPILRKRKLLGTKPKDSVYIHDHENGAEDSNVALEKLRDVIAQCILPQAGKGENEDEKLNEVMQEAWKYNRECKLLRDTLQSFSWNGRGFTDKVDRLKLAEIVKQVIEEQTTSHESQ
# T36 sequence (Q9Y3S1 whole entry): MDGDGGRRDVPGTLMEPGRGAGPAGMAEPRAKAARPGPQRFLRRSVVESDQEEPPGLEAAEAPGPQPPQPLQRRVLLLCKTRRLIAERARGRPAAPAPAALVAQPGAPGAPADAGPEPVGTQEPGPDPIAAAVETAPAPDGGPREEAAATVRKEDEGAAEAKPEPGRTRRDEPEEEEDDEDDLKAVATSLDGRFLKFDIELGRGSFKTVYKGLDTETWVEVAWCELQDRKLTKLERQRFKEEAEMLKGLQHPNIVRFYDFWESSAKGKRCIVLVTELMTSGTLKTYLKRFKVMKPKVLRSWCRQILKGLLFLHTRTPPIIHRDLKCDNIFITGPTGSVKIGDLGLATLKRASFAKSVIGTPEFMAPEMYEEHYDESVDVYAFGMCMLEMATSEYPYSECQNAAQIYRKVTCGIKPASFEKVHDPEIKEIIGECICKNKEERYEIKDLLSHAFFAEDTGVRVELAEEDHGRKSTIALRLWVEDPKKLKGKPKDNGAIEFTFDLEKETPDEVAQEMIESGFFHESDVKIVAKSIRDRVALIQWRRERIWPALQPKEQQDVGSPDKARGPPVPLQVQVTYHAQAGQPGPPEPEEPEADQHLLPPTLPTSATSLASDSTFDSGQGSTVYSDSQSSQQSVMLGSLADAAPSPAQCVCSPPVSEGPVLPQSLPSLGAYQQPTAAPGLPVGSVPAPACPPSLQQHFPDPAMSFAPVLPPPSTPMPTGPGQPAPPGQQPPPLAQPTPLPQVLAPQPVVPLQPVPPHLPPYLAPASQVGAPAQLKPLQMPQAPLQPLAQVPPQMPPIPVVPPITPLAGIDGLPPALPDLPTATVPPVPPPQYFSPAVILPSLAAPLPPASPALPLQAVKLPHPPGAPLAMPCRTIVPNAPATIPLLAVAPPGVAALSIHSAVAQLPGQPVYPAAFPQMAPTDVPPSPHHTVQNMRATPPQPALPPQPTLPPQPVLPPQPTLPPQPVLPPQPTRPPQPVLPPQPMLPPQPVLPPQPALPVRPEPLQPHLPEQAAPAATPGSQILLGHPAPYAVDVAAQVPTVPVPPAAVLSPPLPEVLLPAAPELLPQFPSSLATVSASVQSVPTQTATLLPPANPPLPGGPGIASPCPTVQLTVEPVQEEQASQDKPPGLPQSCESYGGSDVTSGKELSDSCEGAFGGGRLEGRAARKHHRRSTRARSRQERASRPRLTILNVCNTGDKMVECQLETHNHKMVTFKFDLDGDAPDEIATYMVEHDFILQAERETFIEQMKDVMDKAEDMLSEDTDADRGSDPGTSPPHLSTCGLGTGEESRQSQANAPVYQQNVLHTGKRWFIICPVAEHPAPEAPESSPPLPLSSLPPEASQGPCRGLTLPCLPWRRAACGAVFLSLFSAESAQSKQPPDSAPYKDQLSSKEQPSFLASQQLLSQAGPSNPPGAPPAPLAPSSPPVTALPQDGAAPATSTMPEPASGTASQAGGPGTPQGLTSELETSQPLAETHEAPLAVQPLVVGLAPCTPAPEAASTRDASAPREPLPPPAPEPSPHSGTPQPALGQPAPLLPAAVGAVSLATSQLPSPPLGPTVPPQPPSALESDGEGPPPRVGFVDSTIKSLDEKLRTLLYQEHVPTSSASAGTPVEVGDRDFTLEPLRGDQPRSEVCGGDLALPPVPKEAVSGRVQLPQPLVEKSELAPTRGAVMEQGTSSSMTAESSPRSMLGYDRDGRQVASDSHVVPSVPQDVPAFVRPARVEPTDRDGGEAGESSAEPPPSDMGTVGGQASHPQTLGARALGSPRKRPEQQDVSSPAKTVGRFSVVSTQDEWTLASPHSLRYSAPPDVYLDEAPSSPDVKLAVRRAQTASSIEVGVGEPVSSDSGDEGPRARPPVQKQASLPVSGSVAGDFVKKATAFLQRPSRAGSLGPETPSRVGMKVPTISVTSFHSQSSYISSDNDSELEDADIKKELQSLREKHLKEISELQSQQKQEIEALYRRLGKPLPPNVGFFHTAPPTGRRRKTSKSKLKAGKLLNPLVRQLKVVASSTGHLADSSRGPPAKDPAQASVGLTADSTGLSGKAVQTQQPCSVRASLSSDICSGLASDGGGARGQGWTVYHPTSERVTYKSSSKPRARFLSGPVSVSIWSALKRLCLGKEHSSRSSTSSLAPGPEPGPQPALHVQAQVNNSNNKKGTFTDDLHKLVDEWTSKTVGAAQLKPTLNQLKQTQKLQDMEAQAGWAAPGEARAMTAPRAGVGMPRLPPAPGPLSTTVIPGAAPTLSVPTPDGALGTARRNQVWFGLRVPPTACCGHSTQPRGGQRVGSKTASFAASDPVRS
# T16 sequence (Q16513 whole entry): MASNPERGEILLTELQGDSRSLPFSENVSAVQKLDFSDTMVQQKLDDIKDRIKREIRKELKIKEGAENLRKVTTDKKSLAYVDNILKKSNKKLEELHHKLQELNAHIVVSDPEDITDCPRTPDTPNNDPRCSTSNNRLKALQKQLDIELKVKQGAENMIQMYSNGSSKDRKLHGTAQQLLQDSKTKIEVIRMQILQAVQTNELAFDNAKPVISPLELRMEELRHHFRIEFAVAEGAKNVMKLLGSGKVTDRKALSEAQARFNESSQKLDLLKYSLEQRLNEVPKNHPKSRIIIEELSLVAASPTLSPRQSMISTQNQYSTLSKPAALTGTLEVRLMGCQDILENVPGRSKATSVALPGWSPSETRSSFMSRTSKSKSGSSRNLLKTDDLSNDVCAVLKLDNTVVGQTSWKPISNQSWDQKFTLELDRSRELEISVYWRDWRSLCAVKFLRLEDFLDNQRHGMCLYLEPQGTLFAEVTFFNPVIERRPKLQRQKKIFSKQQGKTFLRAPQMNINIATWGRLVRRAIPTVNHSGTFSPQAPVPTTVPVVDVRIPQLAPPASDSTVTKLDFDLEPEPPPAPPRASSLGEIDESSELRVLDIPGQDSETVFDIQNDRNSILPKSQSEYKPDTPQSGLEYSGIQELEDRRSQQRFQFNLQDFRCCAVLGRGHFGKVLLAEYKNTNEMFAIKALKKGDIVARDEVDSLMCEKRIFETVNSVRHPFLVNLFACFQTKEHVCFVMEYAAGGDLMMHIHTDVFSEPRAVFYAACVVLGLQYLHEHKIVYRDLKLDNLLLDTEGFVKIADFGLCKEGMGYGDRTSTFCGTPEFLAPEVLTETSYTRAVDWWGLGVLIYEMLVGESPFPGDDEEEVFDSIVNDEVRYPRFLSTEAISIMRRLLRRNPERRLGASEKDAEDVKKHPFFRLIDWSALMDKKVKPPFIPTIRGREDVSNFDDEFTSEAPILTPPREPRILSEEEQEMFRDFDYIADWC
compound,measurement,setting,value
"COCCN1C[C@@H](NC(=O)Nc2sc(C(C)C)nc2-c2ccccc2)[C@H](c2ccccc2)C1 [Example 48, 1-(2-isopropyl-4-phenylthiazol-5-yl)-3-((3S,4R)-1-(2-methoxyethyl)-4-phenylpyrrolidin-3-yl)urea]",Avg POC,mTOR/FKBP12,111.5% of control
same,Avg POC,EphA5,107% of control
same,Avg POC,Tie2,96% of control
same,Avg POC,MSSK1,94% of control
same,Avg POC,CDK1/cyclinB,106% of control
same,Avg POC,ARK5,106% of control
same,Avg POC,FAK2,107.5% of control
same,Avg POC,MSK2,103.5% of control
same,Avg POC,TAK1,104% of control
same,Avg POC,PDK1,85.5% of control
same,Avg POC,CK1delta,111.5% of control
same,Avg POC,FGFR2,106.5% of control
same,Avg POC,JNK3,106% of control
same,Avg POC,ROCK-I,103.5% of control
same,Avg POC,SGK3,82% of control
same,Avg POC,PRK2,111% of control
same,Avg POC,PKCeta,93% of control
same,Avg POC,FAK,107.5% of control
same,Avg POC,ITK,170.5% of control
same,Avg POC,EphA2,101% of control
same,Avg POC,AKT1,117% of control
same,Avg POC,Rse,117% of control
same,Avg POC,ZAP-70,100.5% of control
same,Avg POC,Fgr,111.5% of control
same,Avg POC,DCAMKL2,142% of control
same,Avg POC,SRPK2,109% of control
same,Avg POC,MINK,117% of control
same,Avg POC,MRCKalpha,113.5% of control
same,Avg POC,Axl,113% of control
same,Avg POC,CK2alpha2,113% of control
same,Avg POC,Flt4,103% of control
same,Avg POC,FGFR3,103.5% of control
same,Avg POC,BLK_m,107% of control
same,Avg POC,CK1_y,106% of control
same,Avg POC,MAPKAP-K5,108% of control
same,Avg POC,Fyn,108.5% of control
same,Avg POC,WNK2,92.5% of control
same,Avg POC,CK1gamma2,94.5% of control
same,Avg POC,AKT3,106.5% of control
same,Avg POC,EphA4,105.5% of control
same,Avg POC,IR Activated,111.5% of control
same,Avg POC,MST1,93.5% of control
